In patent US20220202322A1, “DRUG RELEASE COMPOSITIONS AND METHODS FOR DELIVERY” (ABBOTT DIABETES CARE INC., priority 2020, published 2022):
In brackets after ≈: the same amount, converted by molar mass.

Experiment: physchem
Assay type: physicochemical
Settings: water
Text: Conjugating dexamethasone to a water-soluble polymer makes dexamethasone water soluble, which allows for more consistent dispensing. […] As further shown in FIG. 22D, dispensing of the solution of 18 without a crosslinking agent (left panel) and with a crosslinking agent (right panel) was consistent and performed without difficulty.

C[C@@H]1C[C@H]2[C@@H]3CCC4=CC(=O)C=C[C@]4(C)[C@@]3(F)[C@@H](O)C[C@]2(C)[C@@]1(O)C(=O)CO [dexamethasone]
solubility: 50 µg/mL (≈ 127 µM)
